According to patent EP2966079B1, “PYRIDOPYRIMIDINE OR PYRIMIDOPYRIMIDINE COMPOUND, PREPARATION METHOD, PHARMACEUTICAL COMPOSITION AND USE THEREOF” (Shanghai Institute of Materia Medica, Chinese Academy of …, priority 2013, dated 2014):

How the values were obtained:
human brain glioma U87MG = experiment: Cell proliferation assay (MTS method), U87MG; type: cell-based; settings: U-87 MG, 72 h, U87MG cells, cultured with compound for 3 days
Procedure: (§1) Cell proliferation assay was based on two types of cell lines, i.e., human brain glioma U87MG and human prostate cancer LNCap, both of which were from ATCC. U87MG and LNCap contain PTEN gene deletion, and belongs to mTOR signal-dependent tumor cells. Cell culture media and related reagents were from GIBCO. U87MG cells were cultured in a MEM complete medium (containing 10% fetal bovine serum, 100 U/mL penicillin and 100 µg/mL streptomycin). […] Cells/compound was cultured for 3 days, and MTS method was used to test cell proliferation. MTS and PMS were purchased from Sigma company, a stock solution of MTS/PMS (20:1) was added into the test cells with 20 µL/well. After a suitable time of incubation, the proliferation assay results was recorded on a 96 well plate microplate reader. Relative cell viability% = (A490valueofadministeredgroup−lightvalueoftheblankgroup)/(lightvalueofDMSOgroup−lightvalueofblankgroup) × 100%. [formula]
(§2) The experimental data were processed with Microsoft Office Excel and Graphpad PRISM 5 to calculate IC50.

[1] = test system: human prostate cancer LNCap; experiment: Cell proliferation assay (MTS method), LNCap; type: cell-based; settings: 72 h, LNCap cells, cultured with compound for 3 days
Procedure: as §1, §2

mTOR = mTOR (Homo sapiens, UniProt P42345); experiment: mTOR Kinase test (LANCE Ultra, ULight-4EBP1 substrate); type: biochemical; settings: 1.7 nM mTOR, 50 nM ULight-4EBP1, 100 µM ATP, 1.5 hours reaction
Chain of mTOR (P42345 1362-2549): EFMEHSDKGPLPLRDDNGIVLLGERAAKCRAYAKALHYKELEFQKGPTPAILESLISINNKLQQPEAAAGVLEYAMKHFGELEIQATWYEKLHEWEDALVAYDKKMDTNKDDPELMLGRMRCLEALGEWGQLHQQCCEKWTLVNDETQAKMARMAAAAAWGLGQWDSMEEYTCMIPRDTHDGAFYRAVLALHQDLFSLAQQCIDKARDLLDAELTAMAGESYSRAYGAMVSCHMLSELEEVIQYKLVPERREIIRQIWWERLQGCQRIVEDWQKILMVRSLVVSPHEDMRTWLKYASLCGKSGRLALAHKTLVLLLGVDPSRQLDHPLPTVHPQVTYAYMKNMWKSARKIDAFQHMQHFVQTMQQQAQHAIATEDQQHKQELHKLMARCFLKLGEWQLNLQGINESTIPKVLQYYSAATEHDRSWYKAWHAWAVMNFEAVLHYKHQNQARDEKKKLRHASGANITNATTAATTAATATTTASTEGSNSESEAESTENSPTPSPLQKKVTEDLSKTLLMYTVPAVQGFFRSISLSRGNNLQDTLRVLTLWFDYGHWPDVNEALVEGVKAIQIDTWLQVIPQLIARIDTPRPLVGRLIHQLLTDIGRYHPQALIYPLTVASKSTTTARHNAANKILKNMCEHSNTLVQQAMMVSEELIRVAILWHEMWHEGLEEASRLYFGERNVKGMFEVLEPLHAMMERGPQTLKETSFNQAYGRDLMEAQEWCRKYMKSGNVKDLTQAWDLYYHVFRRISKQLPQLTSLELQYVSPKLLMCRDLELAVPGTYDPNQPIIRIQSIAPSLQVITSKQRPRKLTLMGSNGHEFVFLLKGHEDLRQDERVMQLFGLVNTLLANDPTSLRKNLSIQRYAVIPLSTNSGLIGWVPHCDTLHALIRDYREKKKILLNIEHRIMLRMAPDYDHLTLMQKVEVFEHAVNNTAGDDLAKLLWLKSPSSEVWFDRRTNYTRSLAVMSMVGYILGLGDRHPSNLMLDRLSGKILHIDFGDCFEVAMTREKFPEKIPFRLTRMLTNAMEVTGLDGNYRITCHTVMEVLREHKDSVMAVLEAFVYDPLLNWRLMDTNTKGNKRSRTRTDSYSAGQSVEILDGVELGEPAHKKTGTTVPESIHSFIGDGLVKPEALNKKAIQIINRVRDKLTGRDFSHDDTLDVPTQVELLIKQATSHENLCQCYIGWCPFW

`COc1ccc(-c2cc3nc(N4C[C@@H](C)O[C@@H](C)C4)nc(N4C[C@@H](C)O[C@@H](C)C4)c3cn2)cc1CO` [Compound 17, (5-(2,4-di((2S,6R)-2,6-dimethyl)pyrido[4,3-d]pyrimidin-7-yl)-2-methoxyphenyl)methanol] was tested. Which IC50 (human brain glioma U87MG) did it give?
The IC50 was over 60 µM.

And the IC50 [1]?
The IC50 was 21.4 µM.

What about the IC50 (mTOR) of the same compound?
Its IC50 is over 20 µM.
